Results from patent US20090142323A1, “METHODS FOR TREATING A DISORDER BY REGULATING GPRC6A” (priority 2007, published 2009).

Assays:
HEK-293 cells = test: phospho-ERK in non-transfected HEK-293 control cells; type: cell-based, human; details: control HEK293, no GPRC6A
Protocol: (§1) Equal amounts of lysates were subjected to 10% SDS-PAGE, and phospho-ERK1/2 levels were determined by immunoblotting using antiphospho-ERK1/2 mitogen-activated protein kinase antibody (Cell Signaling Technology). […] An anti-peptide antibody was raised in a rabbit against a peptide ([…] (SEQ ID NO: 27)) corresponding to a sequence in the extracellular domain of mouse GPRC6A (in exon 1 of mouse GPRC6A gene) produced by Abgent (San Diego, Calif.). For phospho-ERK, the phospho-ERK1/2 levels were determined by immunoblotting using anti-phospho-ERK1/2 mitogen-activated protein kinase antibody (Cell Signaling Technology). Urinary β2-microglobulin was detected by rabbit polyclonal anti-β2-microglobulin antibody (Abcam Inc.). For aromatase expression analysis, the rabbit polyclonal anti-aromatase antibody (Abcam Inc.) and goat anti-rabbit IgG HRP secondary antibody (Santa Cruz Biotechnology Inc.) were used. Mouse anti-Actin antibody (Santa Cruz Biotechnology Inc.) was used for control protein loading.

[1] = test system: bone marrow stromal cells (BMSC); test: phospho-ERK in bone marrow stromal cells from wild-type and GPRC6A-/- mice; type: cell-based, mouse
Protocol: The femurs and tibias from 8-week-old wild-type and GPRC6A^−/− mice were dissected, the ends of the bones were cut, and marrow was flushed out with 2 mL of ice-cold a-MEM containing 10% FBS using a needle and syringe. A suspension of bone marrow cells was obtained by repeated aspiration of the cell preparation through a 22-gauge needle, and nucleated cells were counted with a hemocytometer. Cells were seeded into 6-well plates at a density of 3×10^7 cells/mL and cultured for three days in a-MEM supplemented with 10% FBS, 100 kU/L of sodium penicillin G and 100 mg/L of streptomycin sulfate in a humidified incubator with 5% CO2 and 95% air at a temperature of 37° C. On day 3, all nonadherent cells were then removed with the first medium change and then the adherent cells (representing bone marrow-derived mesenchymal stem cells, BMSCs) were grown for additional periods of up 3 days in the same medium. After overnight quiescence, the cells were stimulated for 5 minutes by testosterone and p-estradiol at the concentrations as indicated.

seminal vesicles = test: seminal vesicle size after orchiectomy and testosterone replacement; type: in vivo, mouse; details: testosterone slow releasing pellet
Excerpt: First, the male WT and GPRC6A^−/− littermates will be castrated by removal of the testicles (orchiectomy) and hormone recovered by implanting testosterone slow releasing pellet.

GPRC6A [2] = target: T1, GPRC6A (Mus musculus, UniProt Q8K4Z6); test: [3H]testosterone binding to membrane fractions of HEK-293 cells; parameters: expressed in transfected cells
T1 sequence (Q8K4Z6 21-928): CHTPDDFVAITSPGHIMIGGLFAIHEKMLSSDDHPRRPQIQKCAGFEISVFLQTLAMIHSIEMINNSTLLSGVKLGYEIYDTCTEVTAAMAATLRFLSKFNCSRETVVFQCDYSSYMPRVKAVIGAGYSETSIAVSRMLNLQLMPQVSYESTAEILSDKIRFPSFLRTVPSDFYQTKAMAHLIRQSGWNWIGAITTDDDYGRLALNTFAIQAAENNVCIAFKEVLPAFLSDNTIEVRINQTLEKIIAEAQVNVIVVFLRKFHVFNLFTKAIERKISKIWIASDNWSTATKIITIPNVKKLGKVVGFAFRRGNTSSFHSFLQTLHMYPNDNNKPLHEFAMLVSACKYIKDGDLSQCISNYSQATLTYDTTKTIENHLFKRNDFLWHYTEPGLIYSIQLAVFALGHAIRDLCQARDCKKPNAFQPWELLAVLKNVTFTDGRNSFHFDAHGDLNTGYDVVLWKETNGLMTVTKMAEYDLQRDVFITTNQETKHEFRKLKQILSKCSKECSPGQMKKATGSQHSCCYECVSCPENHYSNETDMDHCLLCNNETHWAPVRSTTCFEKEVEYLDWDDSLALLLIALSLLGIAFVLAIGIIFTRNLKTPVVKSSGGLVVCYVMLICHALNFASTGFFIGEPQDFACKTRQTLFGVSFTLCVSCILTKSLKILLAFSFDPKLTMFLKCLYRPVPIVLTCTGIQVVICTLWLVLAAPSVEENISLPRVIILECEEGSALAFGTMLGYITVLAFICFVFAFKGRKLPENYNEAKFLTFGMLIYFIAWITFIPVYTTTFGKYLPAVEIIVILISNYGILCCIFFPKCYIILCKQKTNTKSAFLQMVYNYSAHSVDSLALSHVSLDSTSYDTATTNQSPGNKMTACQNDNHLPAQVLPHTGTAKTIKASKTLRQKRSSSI
Protocol: Membranes from HEK and HEK stably transfected with GPRC6A were prepared and stored at −80° C. The membrane preparations were diluted to 0.15-0.5 mg protein/ml in binding buffer (in mM: 20 HEPES, 100 NaCl, 6 MgCl2, 1 EDTA, and 1 EGTA) immediately before all binding assays. Total binding saturation curves were generated by incubating 250 μl of membrane preparation and 250 μl of [^3H]Testoterone (Testosterone-[1,2,6,7-3H(N)]; 1 mCi; Sigma, Chemicals, St. Louis, Mo.), dissolved in binding buffer (in mM: 20 HEPES, 100 NaCl, 6 MgCl2, 1 EDTA, and 1 EGTA) for final reaction concentrations ranging from 0.3 to 25 nM, for 40 min. After the 40-min incubation, the binding reactions were terminated by rapidly filtering 400 μl of the reaction over a presoaked Whatman, glass-fiber filter (pore size, 1 μm) to separate bound steroid from free steroid. The filter was immediately washed twice with 12.5 ml of wash buffer (PBS) and placed in a scintillation vial. Radioactivity was counted in a liquid scintillation counter (Beckman Instruments, Fullerton, Calif.). All steps of the binding assays were conducted at 4° C.

GPRC6A [3] = target: T1, GPRC6A; test: phospho-ERK activation in HEK-293 cells transfected with GPRC6A (immunoblot); type: cell-based; parameters: expressed in transfected cells; host or cells: HEK-293
Protocol: as §1

[4] = HEK-293 cells transfected with GPRC6A

C[C@]12CC[C@H]3[C@@H](CCC4=CC(=O)CC[C@@]43C)[C@@H]1CC[C@@H]2O [testosterone]
phospho-ERK response (HEK-293 cells): did not responded | stimulation of phospho-ERK in BMSC ([1]; BMSC from GPRC6A-/- mice, testosterone up to 80 nM): only minimal effects | stimulation of phospho-ERK in BMSC ([1]; BMSC from wild-type mice): substantial stimulation of ERK | recovery of seminal vesicle size (seminal vesicles; orchidectomized GPRC6A-/- mice): weaker compared to wild-type | recovery of seminal vesicle size (seminal vesicles; orchidectomized wild-type mice): effectively recovered the size of seminal vesicles | specific testosterone binding to plasma membranes (GPRC6A [2]; [4]): Significant amounts of specific testosterone binding | specific testosterone binding to plasma membranes (GPRC6A [2]; untransfected cells): negligible specific binding | medium calcium concentration required for testosterone activation of GPRC6A (GPRC6A [3]): > 0.5 mM | activation of phospho-ERK in cytosol and nucleus (GPRC6A [3]; GPRC6A expressing HEK-293 cells): stimulated activation of phospho-ERK in both the cytosol and nucleus | GPRC6A-mediated activation of phospho-ERK (GPRC6A [3]; [4]): stimulated extracellular signal-regulated kinase phosphorylation (phospho-ERK) in a dose-dependent fashion
